Test results as given in ChEMBL document CHEMBL2385071, “Synthesis and biological investigation of coumarin piperazine (piperidine) derivatives as potential multireceptor atypical antipsychotics” (J Med Chem, 2013).

Tests used:
Mus musculus [1] = species: Mus musculus; assay: animal or person; conditions: po
Description: Antipsychotic activity in po dosed mouse assessed as reduction in apomorphine-induced climbing behavior administered for 30 mins prior to apomorphine-challenge measured at 10 to 30 mins post-dose

Mus musculus [2] = assay: Toxicity in mouse assessed as weight gain at 0.06 to […], po for 28 days; format: organism-based; set-up: dose 0.06-0.16 mg/kg, route oral; conditions: in vivo, 672 h
Rattus norvegicus [3] = assay: Toxicity in rat assessed as QT interval prolongation at 30 mg/kg, po by electrophysiology assay; format: organism-based; set-up: dose 30 mg/kg, route oral; conditions: in vivo
Mus musculus [4] = species: Mus musculus; assay: animal or person; conditions: po; remark: listed apart in the source
Rattus norvegicus [5] = assay: Antipsychotic activity in po dosed rat assessed as reduction in conditioned avoidance response after 60 mins; format: functional; conditions: 1 h

## Cc1nc2n(c(=O)c1CCN1CCC(c3noc4cc(F)ccc34)CC1)CCCC2 [RISPERIDONE]
Mus musculus [1]
  ED50: 0.02 mg/kg
Mus musculus [2]
  Activity: Toxic
Rattus norvegicus [3]
  Activity: Toxic
Mus musculus [4]
  ED50: 0.01 mg/kg
Rattus norvegicus [5]
  ED50: 0.48 mg/kg
